Laboratory results: US8716281B2, “Pyrimidine compounds that inhibit anaplastic lymphoma kinase” (Amgen Inc., priority 2010, dated 2014)

Target: T1, wild-type human ALK cytoplasmic domain (amino acids 1058-1620) (Homo sapiens, UniProt Q9UM73)
T1 construct: The cytoplasmic domain (amino acids 1058-1620) of wild-type human ALK; GST (N); made in house; host or cells: SF9 insect cells
Assay: ALK Inhibition in Enzyme Assay (Lance TR-FRET)
Assay type: biochemical
Conditions: 2 nM enzyme, ATP at 40 μM (Km apparent), 90 minutes, mean of three replicates; read-out: ALK IC50
Method in brief: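 Purified enzyme phosphorylated a biotinylated peptide substrate for 90 minutes at room temperature. Reactions were stopped with 20 mM EDTA in 50 mM Tris (pH 7.5), 100 mM NaCl, 0.05% BSA, 0.1% Tween-20. Phosphopeptide was detected by TR-FRET with SA-APC and Eu-W1024 anti-phosphotyrosine antibody PT66, excitation 320 nm.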

T1 sequence (Q9UM73 1058-1620): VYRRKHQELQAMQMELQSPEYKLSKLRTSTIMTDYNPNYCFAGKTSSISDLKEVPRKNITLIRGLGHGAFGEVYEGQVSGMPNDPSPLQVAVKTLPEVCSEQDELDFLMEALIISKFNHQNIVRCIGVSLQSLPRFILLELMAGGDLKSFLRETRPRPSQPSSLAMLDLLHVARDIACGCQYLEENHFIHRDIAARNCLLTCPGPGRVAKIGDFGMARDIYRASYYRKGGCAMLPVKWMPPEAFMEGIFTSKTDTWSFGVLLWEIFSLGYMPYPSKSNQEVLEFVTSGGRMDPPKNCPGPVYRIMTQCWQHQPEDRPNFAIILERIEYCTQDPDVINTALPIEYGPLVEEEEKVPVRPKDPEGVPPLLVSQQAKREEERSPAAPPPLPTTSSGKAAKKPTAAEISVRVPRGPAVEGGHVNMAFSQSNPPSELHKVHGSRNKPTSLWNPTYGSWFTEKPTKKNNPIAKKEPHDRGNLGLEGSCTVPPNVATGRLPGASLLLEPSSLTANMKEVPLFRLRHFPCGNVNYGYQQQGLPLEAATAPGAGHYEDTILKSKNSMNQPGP

Cc1ccc(CNC(=O)[C@H]2CCCN(c3ccnc(Nc4cccc(-c5nnn[nH]5)c4)n3)C2)cc1 [Example 176, (3S)-N-(4-methylbenzyl)-1-(2-((3-(1H-tetrazol-5-yl)phenyl)amino)-4-pyrimidinyl)-3-piperidinecarboxamide] was tested, and the IC50 was 5 to 10 µM.
For Cc1ccc(CNC(=O)[C@H]2CCCN(c3ccnc(Nc4cccc(-c5cnco5)c4)n3)C2)cc1 [Example 177, (3S)-N-(4-methylbenzyl)-1-(2-((3-(1,3-oxazol-5-yl)phenyl)amino)-4-pyrimidinyl)-3-piperidinecarboxamide], the IC50 was 0.1 to 1 µM.
CC(=O)Nc1cccc(Nc2nccc(N3CCC[C@H](C(=O)NCc4ccc(C)cc4)C3)n2)c1 [Example 178, (3S)-1-(2-((3-(acetylamino)phenyl)amino)-4-pyrimidinyl)-N-(4-methylbenzyl)-3-piperidinecarboxamide] was tested, and the IC50 was 0.1 to 1 µM.
Cc1ccc(CNC(=O)[C@H]2CCCN(c3ccnc(Nc4ccc(F)cc4)n3)C2)cc1 [Example 179, (3S)-1-(2-((4-fluorophenyl)amino)-4-pyrimidinyl)-N-(4-methylbenzyl)-3-piperidinecarboxamide] gave an IC50 of 1 to 5 µM.
Cc1ccc(CNC(=O)[C@H]2CCCN(c3ccnc(Nc4ccc(C)cc4)n3)C2)cc1 [Example 180, (3S)-N-(4-methylbenzyl)-1-(2-((4-methylphenyl)amino)-4-pyrimidinyl)-3-piperidinecarboxamide] gave an IC50 of 1 to 5 µM.
Work on Cc1ccc(CNC(=O)[C@H]2CCCN(c3ccnc(Nc4cccc(C(C)(C)C)c4)n3)C2)cc1 [Example 181, (3S)-1-(2-((3-tert-butylphenyl)amino)-4-pyrimidinyl)-N-(4-methylbenzyl)-3-piperidinecarboxamide] yielded an IC50 of 0.1 to 1 µM.
Compound Cc1ccc(CNC(=O)[C@H]2CCCN(c3ccnc(Nc4cccc(-c5ccccc5)c4)n3)C2)cc1 [Example 182, (3S)-1-(2-(3-biphenylylamino)-4-pyrimidinyl)-N-(4-methylbenzyl)-3-piperidinecarboxamide] has an IC50 of 0.1 to 1 µM.
Compound CC(=O)NCc1cccc(Nc2nccc(N3CCC[C@H](C(=O)NCc4ccc(C)cc4)C3)n2)c1 [Example 183, (3S)-1-(2-((3-((acetylamino)methyl)phenyl)amino)-4-pyrimidinyl)-N-(4-methylbenzyl)-3-piperidinecarboxamide] has an IC50 of 0.1 to 1 µM.
For Cc1ccc(CNC(=O)[C@H]2CCCN(c3ccnc(Nc4cccc(CC(N)=O)c4)n3)C2)cc1 [Example 184, (3S)-1-(2-((3-(2-amino-2-oxoethyl)phenyl)amino)-4-pyrimidinyl)-N-(4-methylbenzyl)-3-piperidinecarboxamide], the IC50 was 0.1 to 1 µM.
With Cc1ccc(CNC(=O)[C@H]2CCCN(c3ccnc(Nc4cccc(F)c4)n3)C2)cc1 [Example 185, (3S)-1-(2-((3-fluorophenyl)amino)-4-pyrimidinyl)-N-(4-methylbenzyl)-3-piperidinecarboxamide] the IC50 was 1 to 5 µM.
Cc1ccc(CNC(=O)[C@H]2CCCN(c3ccnc(Nc4ccc(C(=O)c5ccccc5)cc4)n3)C2)cc1 [Example 186, (S)-1-(2-(4-benzoylphenylamino)pyrimidin-4-yl)-N-(4-methylbenzyl)piperidine-3-carboxamide] was tested, and the IC50 was 5 to 10 µM.
CCN(CC)CCNC(=O)c1ccc(Nc2nccc(N3CCC[C@H](C(=O)NCc4ccc(C)cc4)C3)n2)cc1 [Example 187, (S)-1-(2-(4-(2-(diethylamino)ethylcarba-moyl)phenylamino)pyri-midin-4-yl)-N-(4-methylbenzyl)piperidine-3-carboxamide] gave an IC50 of 0.1 to 1 µM.
Work on Cc1ccc(CNC(=O)[C@H]2CCCN(c3ccnc(Nc4ccc(S(N)(=O)=O)cc4)n3)C2)cc1 [Example 188, (S)-N-(4-methylbenzyl)-1-(2-(4-sulfamoylphenylamino)pyrimidin-4-yl)piperidine-3-carboxamide] yielded an IC50 of 0.1 to 1 µM.
Cc1ccc(CNC(=O)[C@H]2CCCN(c3ccnc(Nc4ccc(-c5cnco5)cc4)n3)C2)cc1 [Example 189, (S)-N-(4-methylbenzyl)-1-(2-(4-(oxazol-5-yl)phenylamino)py-rimidin-4-yl)piperidine-3-carboxamide] was tested, and the IC50 was 1 to 5 µM.
With Cc1ccc(CNC(=O)[C@H]2CCCN(c3ccnc(Nc4cc(OC[C@H]5CCCN5C)cc(C(F)(F)F)c4)n3)C2)cc1 [Example 190, (S)-N-(4-methylbenzyl)-1-(2-(3-(((R)-1-methylpyrrolidin-2-yl)methoxy)-5-(trifluoromethyl)phenylamino)pyrimidin-4-yl)piperidine-3-carboxamide] the IC50 was 0.05 to 0.1 µM.
With Cc1ccc(CNC(=O)[C@H]2CCCN(c3ccnc(Nc4ccc(-n5cncn5)cc4)n3)C2)cc1 [Example 191, (S)-1-(2-(4-(1H-1,2,4-triazol-1-yl)phenylamino)pyrimidin-4-yl)-N-(4-methylbenzyl)piperidine-3-carboxamide] the IC50 was 1 to 5 µM.
In the case of CCOc1ccc(Nc2nccc(N3CCC[C@H](C(=O)NCc4ccc(C)cc4)C3)n2)cc1 [Example 192, (S)-1-(2-(4-ethoxyphenylamino)pyrimidin-4-yl)-N-(4-methylbenzyl)piperidine-3-carboxamide], the IC50 is reported as 1 to 5 µM.
Work on Cc1ccc(CNC(=O)[C@H]2CCCN(c3ccnc(Nc4ccc(N5CCNC(=O)C5)nc4)n3)C2)cc1 [Example 193, (S)-N-(4-methylbenzyl)-1-(2-(6-(3-oxopiperazin-1-yl)pyridin-3-ylamino)pyrimidin-4-yl)piperidine-3-carboxamide] yielded an IC50 of 1 to 5 µM.
